Where two headings read alike, the source gives them in different places.
Legend:
A2780 cells = assay: In-vitro cell proliferation assay (SRB), A2780 cells; type: cell-based; details: Homo sapiens, A2780, 72 h, A2780 cells, 72 hours, read-out: A2780 IC50
Method in brief: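 Read-out is SRB absorbance at 570 nm on TCA-fixed cells after 72 hours of compound treatment at 37° C. in 5% CO2. Background from a media-only plate is subtracted, and % inhibition is interpolated between two tested concentrations.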

NAMPT = target: T1, NAMPT (Homo sapiens, UniProt P43490); assay: Biochemical inhibition assay: NAMPT enzymatic reaction, NMN quantified by mass spectrometry; details: read-out: Biochem IC50
T1 construct: His tag; host or cells: E. coli
T1 sequence (P43490 whole entry): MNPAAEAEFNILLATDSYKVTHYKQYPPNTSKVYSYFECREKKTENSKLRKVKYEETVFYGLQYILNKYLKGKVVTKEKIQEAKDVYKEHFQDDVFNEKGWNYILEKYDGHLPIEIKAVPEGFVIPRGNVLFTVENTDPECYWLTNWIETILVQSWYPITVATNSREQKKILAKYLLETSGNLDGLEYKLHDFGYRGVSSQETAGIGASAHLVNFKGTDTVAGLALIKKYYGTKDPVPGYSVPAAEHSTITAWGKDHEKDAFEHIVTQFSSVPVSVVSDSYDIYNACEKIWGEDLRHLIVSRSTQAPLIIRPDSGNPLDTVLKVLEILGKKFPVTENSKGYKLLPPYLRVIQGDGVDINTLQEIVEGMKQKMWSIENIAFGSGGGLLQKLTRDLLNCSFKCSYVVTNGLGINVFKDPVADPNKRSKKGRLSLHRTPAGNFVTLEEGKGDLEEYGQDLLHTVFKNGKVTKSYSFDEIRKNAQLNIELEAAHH
Method in brief: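 Inhibition of E. coli-expressed His-tagged human NAMPT, measured as NMN formation by mass spectrometry after a 30 min room-temperature reaction containing 1 μM NAM, 100 μM PRPP and 2.5 mM ATP.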

| Structure (SMILES) | IC50 (A2780 cells; SRB) | IC50 (NAMPT; NAMPT enzymatic reaction) | IC50 (NAMPT; NAMPT enzymatic assay) | IC50 (A2780 cells; SRB assay) |
| --- | --- | --- | --- | --- |
| Cc1ccc(F)c(S(=O)(=O)c2ccc(CNC(=O)c3cc4ccncc4o3)cc2)c1 | 13.4 nM | 5.9 nM | – | – |
| CCCOc1ccc(S(=O)(=O)c2ccc(CNC(=O)c3cnc4[nH]ncc4c3)cc2)cc1F [N-({4-[(3-fluoro-4-propoxybenzene)sulfonyl]phenyl}methyl)-1H-pyrazolo[3,4-b]pyridine-5-carboxamide] | 6.5 nM | 11.6 nM | – | – |
| O=C(NCc1ccc(S(=O)(=O)c2cccc(C(F)(F)F)c2)cc1)c1ccc2ncsc2c1 | 548 nM | – | 6 nM | – |
| CN(C)c1ncc(S(=O)(=O)c2ccc(CNC(=O)c3cc4cnccc4[nH]3)cc2)cn1 [N-({4-[2-(dimethylamino)pyrimidine-5-sulfonyl]phenyl}methyl)-1H-pyrrolo[3,2-c]pyridine-2-carboxamide] | 3.5 nM | – | 19 nM | – |
| O=C(NCc1ccc(S(=O)(=O)c2ccc3c(c2)OCO3)cc1)c1ccc2nccn2c1 [N-{[4-(2H-1,3-benzodioxole-5-sulfonyl)phenyl]methyl}imidazo[1,2-a]pyridine-6-carboxamide] | 5.33 nM | – | 10.7 nM | – |
| COc1ccc(S(=O)(=O)c2ccc(CNC(=O)c3cnc4[nH]ncc4c3)cc2)c(Cl)c1 [N-({4-[(2-chloro-4-methoxybenzene)sulfonyl]phenyl}methyl)-1H-pyrazolo[3,4-b]pyridine-5-carboxamide] | 87.7 nM | 51.6 nM | – | – |
| COc1ccc(OC)c(S(=O)(=O)c2ccc(CNC(=O)c3cc4ccncc4s3)cc2)c1OC [N-({4-[(2,3,6-trimethoxybenzene)sulfonyl]phenyl}methyl)thieno[2,3-c]pyridine-2-carboxamide] | 5.5 nM | – | 12 nM | – |
| CC(=O)c1cccc(S(=O)(=O)c2ccc(CNC(=O)c3cc4cnccc4[nH]3)cc2)c1 [N-({4-[(3-acetylbenzene)sulfonyl]phenyl}methyl)-1H-pyrrolo[3,2-c]pyridine-2-carboxamide] | – | 12 nM | – | 6 nM |
| O=C(NCc1ccc(S(=O)(=O)c2cc(F)ccc2CO)cc1)c1cc2ccncc2s1 | 24.9 nM | – | 7.7 nM | – |
| O=C(NCc1ccc(S(=O)(=O)c2cc(F)cc(N3CCOCC3)c2)cc1)c1cc2cnccc2[nH]1 | 0.8 nM | – | 4 nM | – |
| O=C(NCc1ccc(S(=O)(=O)c2ccc(-n3cccn3)cc2F)cc1)c1cnc2nccn2c1 | 19 nM | – | 2.2 nM | – |
| Cc1ccc(C)c(S(=O)(=O)c2ccc(CNC(=O)c3cc4cnccc4[nH]3)cc2)c1 [N-({4-[(2,5-dimethylbenzene)sulfonyl]phenyl}methyl)-1H-pyrrolo[3,2-c]pyridine-2-carboxamide] | – | 11 nM | – | 14 nM |
| Cc1ccc(S(=O)(=O)c2ccc(CNC(=O)c3cnc4[nH]ncc4c3)cc2)c(C)c1 [N-({4-[(2,4-dimethylbenzene)sulfonyl]phenyl}methyl)-1H-pyrazolo[3,4-b]pyridine-5-carboxamide] | 71.6 nM | 61.2 nM | – | – |
| O=C(NCc1ccc(S(=O)(=O)c2cccc(C(F)(F)F)n2)cc1)c1cnc2nccn2c1 [N-({4-[6-(trifluoromethyl)pyridine-2-sulfonyl]phenyl}methyl)imidazo[1,2-a]pyrimidine-6-carboxamide] | 20.4 nM | – | 11.4 nM | – |
| O=C(NCc1ccc(S(=O)(=O)c2ccc(Cl)cc2C(F)(F)F)cc1)c1cc2ccncc2s1 | 9.6 nM | – | 7 nM | – |
| Cc1cc(F)cc(S(=O)(=O)c2ccc(CNC(=O)c3ccc4nccn4c3)cc2)c1 [N-({4-[(3-fluoro-5-methylbenzene)sulfonyl]phenyl}methyl)imidazo[1,2-a]pyridine-6-carboxamide] | 0.6 nM | 2.7 nM | – | – |
| CCCCOc1ccc(S(=O)(=O)c2ccc(CNC(=O)c3ccc4nccn4c3)cc2)cc1F | 3.1 nM | 6.2 nM | – | – |
| COc1ccc(C(C)=O)cc1S(=O)(=O)c1ccc(CNC(=O)c2ccc3nccn3c2)cc1 [N-({4-[(5-acetyl-2-methoxybenzene)sulfonyl]phenyl}methyl)imidazo[1,2-a]pyridine-6-carboxamide] | 12.7 nM | 37.9 nM | – | – |
| O=C(NCc1ccc(S(=O)(=O)c2ccccc2C(F)(F)F)cc1)c1cc2cnccc2[nH]1 [N-[(4-{[2-(trifluoromethyl)benzene]sulfonyl}phenyl)methyl]-1H-pyrrolo[3,2-c]pyridine-2-carboxamide] | – | 22 nM | – | 25 nM |
| O=C(NCc1ccc(S(=O)(=O)c2ccccc2)cc1)N1CCc2ncccc2C1 [N-{[4-(benzenesulfonyl)phenyl]methyl}-5,6,7,8-tetrahydro-1,6-naphthyridine-6-carboxamide] | – | 544 nM | – | > 2000 nM |
| O=C(NCc1ccc(S(=O)(=O)c2ccc(CO)cc2)cc1)c1cc2ccncc2o1 | 6.2 nM | – | 4.9 nM | – |
| CCN(C)c1ncc(S(=O)(=O)c2ccc(CNC(=O)c3cnc4nccn4c3)cc2)s1 [N-[(4-{2-[ethyl(methyl)amino]-1,3-thiazole-5-sulfonyl}phenyl)methyl]imidazo[1,2-a]pyrimidine-6-carboxamide] | 0.9 nM | – | 1.8 nM | – |
| CC(C)NC(=O)c1cccc(S(=O)(=O)c2ccc(CNC(=O)c3ccc4nccn4c3)cc2)c1 | 50.4 nM | – | 22.2 nM | – |

| Structure (SMILES) | IC50 (A2780 cells; SRB) | IC50 (NAMPT; NAMPT enzymatic reaction) | IC50 (NAMPT; NAMPT enzymatic assay) | IC50 (A2780 cells; SRB assay) |
| --- | --- | --- | --- | --- |
| O=C(NCc1ccc(S(=O)(=O)c2cncc(F)c2)cc1)c1cnc2[nH]ncc2c1 [N-{[4-(5-fluoropyridine-3-sulfonyl)phenyl]methyl}-1H-pyrazolo[3,4-b]pyridine-5-carboxamide] | 25.4 nM | – | 79.2 nM | – |
| CCCOc1ccc(Cl)cc1S(=O)(=O)c1ccc(CNC(=O)c2cc3ccncc3o2)cc1 | 9.3 nM | 8 nM | – | – |
| CCOCc1ccc(S(=O)(=O)c2ccc(CNC(=O)c3cc4ccncc4o3)cc2)cc1 | 6.6 nM | – | 4.9 nM | – |
| O=C(NCc1ccc(S(=O)(=O)c2cccc(Cl)c2)cc1)c1cc2ncccc2[nH]1 | 13 nM | 3.9 nM | – | – |
| Cc1ccccc1S(=O)(=O)c1ccc(CNC(=O)c2cc3ccncc3s2)cc1 [N-({4-[(2-methylbenzene)sulfonyl]phenyl}methyl)thieno[2,3-c]pyridine-2-carboxamide] | – | 10 nM | – | 22.2 nM |
| O=C(NCc1ccc(S(=O)(=O)c2cccc(Cl)c2F)cc1)c1cnc2nccn2c1 | 17.6 nM | 2.4 nM | – | – |
| CC(C)c1cccc(S(=O)(=O)c2ccc(CNC(=O)c3cc4ccncc4s3)cc2)c1 [N-[(4-{[3-(propan-2-yl)benzene]sulfonyl}phenyl)methyl]thieno[2,3-c]pyridine-2-carboxamide] | – | 9 nM | – | 2.6 nM |
| COc1cc(S(=O)(=O)c2ccc(CNC(=O)c3cc4cnccc4[nH]3)cc2)ccc1C | 3 nM | 7.9 nM | – | – |
| COc1ccc(C)cc1S(=O)(=O)c1ccc(CNC(=O)c2cc3ccncc3o2)cc1 | 6.8 nM | 13.3 nM | – | – |
| CCCOc1ccc(S(=O)(=O)c2ccc(CNC(=O)c3cc4cnccc4[nH]3)cc2)c(C)c1 | 22.1 nM | 30.5 nM | – | – |
| O=C(NCc1ccc(S(=O)(=O)c2ccc3nc(C(F)(F)F)cn3c2)cc1)c1ccc2nccn2c1 [N-({4-[2-(trifluoromethyl)imidazo[1,2-a]pyridine-6-sulfonyl]phenyl}methyl)imidazo[1,2-a]pyridine-6-carboxamide] | 7 nM | – | 36.2 nM | – |
| CC(C)COc1cc(F)cc(S(=O)(=O)c2ccc(CNC(=O)c3ccc4nccn4c3)cc2)c1 | 3 nM | – | 11.3 nM | – |
| O=C(NCc1ccc(S(=O)(=O)c2csc(-c3cccc(F)c3)n2)cc1)c1cc2ccncc2s1 [N-({4-[2-(3-fluorophenyl)-1,3-thiazole-4-sulfonyl]phenyl}methyl)thieno[2,3-c]pyridine-2-carboxamide] | 24.4 nM | – | 6.6 nM | – |
| COc1ccc(S(=O)(=O)c2ccc(CNC(=O)c3cc4cnccc4[nH]3)cc2)cc1C [N-({4-[(4-methoxy-3-methylbenzene)sulfonyl]phenyl}methyl)-1H-pyrrolo[3,2-c]pyridine-2-carboxamide] | – | 10 nM | – | 2 nM |
| COc1cc(C)cc(S(=O)(=O)c2ccc(CNC(=O)c3cc4cnccc4[nH]3)cc2)c1 | 2.8 nM | 9.6 nM | – | – |
| O=C(NCc1ccc(S(=O)(=O)c2cccc(C(=O)NC3CCCC3)c2)cc1)c1ccc2nccn2c1 | 16.2 nM | – | 10.3 nM | – |
| CCCCOc1ccc(S(=O)(=O)c2ccc(CNC(=O)c3cc4cnccc4[nH]3)cc2)cc1F | 13.4 nM | 53.6 nM | – | – |
| O=C(NCc1ccc(S(=O)(=O)c2cccc3c2Oc2ccccc2S3)cc1)c1cc2ccncc2s1 [N-{[4-(phenoxathiine-4-sulfonyl)phenyl]methyl}thieno[2,3-c]pyridine-2-carboxamide] | – | 4 nM | – | 1.7 nM |
| CC(C)COc1cccc(S(=O)(=O)c2ccc(CNC(=O)c3cc4cnccc4[nH]3)cc2)c1 [N-[(4-{[3-(2-methylpropoxy)benzene]sulfonyl}phenyl)methyl]-1H-pyrrolo[3,2-c]pyridine-2-carboxamide] | 14.3 nM | – | 32.2 nM | – |
| O=C(NCc1ccc(S(=O)(=O)c2ccc(C(F)(F)F)cn2)cc1)c1cnc2nccn2c1 [N-({4-[5-(trifluoromethyl)pyridine-2-sulfonyl]phenyl}methyl)imidazo[1,2-a]pyrimidine-6-carboxamide] | 70.8 nM | – | 5.9 nM | – |
| COc1cc(C)cc(S(=O)(=O)c2ccc(CNC(=O)c3cnc4[nH]ncc4c3)cc2)c1OC | 58.6 nM | 146 nM | – | – |
| COc1cccc(S(=O)(=O)c2ccc(CNC(=O)c3cnc4nccn4c3)cc2)c1 [N-({4-[(3-methoxybenzene)sulfonyl]phenyl}methyl)imidazo[1,2-a]pyrimidine-6-carboxamide] | 12.4 nM | 2 nM | – | – |
| Cc1ccc(S(=O)(=O)c2ccc(CNC(=O)c3cnc4nccn4c3)cc2)cc1C | 1.6 nM | 1.1 nM | – | – |
